According to BigSolDB 2.1:

[NH3+]O.[NH3+]O.[O-]n1nnnc1-c1nnnn1[O-]
solubility (mole fraction)
Details	in DMF	in DMSO	in ethanol	in ethyl acetate	in formic acid	in toluene	in water
293.15 K	6.38e-05	0.00122	3.87e-06	1.93e-06	0.000213	1.85e-05	2.42e-05
298.15 K	7.18e-05	0.00131	4.82e-06	2.16e-06	0.000231	2.2e-05	2.83e-05
303.15 K	9.56e-05	0.00149	5.92e-06	2.37e-06	0.00025	2.44e-05	3.29e-05
308.15 K	0.000142	0.00159	7.19e-06	2.72e-06	0.00028	2.6e-05	3.59e-05
313.15 K	0.000183	0.00179	8.16e-06	3.16e-06	0.000302	2.89e-05	4.17e-05
318.15 K	0.000225	0.00191	9.64e-06	3.56e-06	0.000347	3.24e-05	4.84e-05
323.15 K	0.000269	0.00211	1.21e-05	3.92e-06	0.000392	3.69e-05	5.5e-05
